Test results published in patent US20250099364A1, “METHOD AND COMPOSITIONS FOR COSMETIC COMPOSITIONS” (MARY KAY INC., priority 2023, published 2025).

Experiments:
Type in all cases: cell-based
[1] = system: collagen production in fibroblasts; assay: Collagen production in fibroblasts treated with oxytocin; settings: 72 hours
Method: FIG. 2. Fibroblasts were treated with oxytocin for 72 hours.

[2] = system: elastin production in fibroblasts; assay: Elastin production in fibroblasts treated with oxytocin; settings: 72 hours
Method: FIG. 3. Fibroblasts were treated with oxytocin for 72 hours.

[3] = system: IL-15 production in keratinocytes; assay: IL-15 production in keratinocytes treated with oxytocin; settings: 24 hours
Method: FIG. 4. Keratinocytes were treated with oxytocin for 24 hours.

## CC[C@H](C)[C@@H]1NC(=O)[C@H](Cc2ccc(O)cc2)NC(=O)[C@@H](N)CSSC[C@@H](C(=O)N2CCC[C@H]2C(=O)N[C@@H](CC(C)C)C(=O)NCC(N)=O)NC(=O)[C@H](CC(N)=O)NC(=O)[C@H](CCC(N)=O)NC1=O [oxytocin]
[1]; 25 μg/mL oxytocin
  increase in collagen production compared to untreated control: +109%
[1]; 100 μg/mL oxytocin
  increase in collagen production compared to untreated control: +117%
[2]; 25 ng/mL oxytocin
  increase in elastin production compared to untreated control: +166%
[2]; 100 ng/mL oxytocin
  increase in elastin production compared to untreated control: +127%
[2]; 25 μg/mL oxytocin
  increase in elastin production compared to untreated control: +133%
[2]; 100 μg/mL oxytocin
  increase in elastin production compared to untreated control: +117%
[3]; 25 ng/mL oxytocin
  increase in IL-15 production compared to untreated control: +50%
[3]; 100 ng/mL oxytocin
  increase in IL-15 production compared to untreated control: +90%
[3]; 5 μg/mL oxytocin
  increase in IL-15 production compared to untreated control: +121%
[3]; 25 μg/mL oxytocin
  increase in IL-15 production compared to untreated control: +165%
[3]; 100 μg/mL oxytocin
  increase in IL-15 production compared to untreated control: +331%
